Results on 13 compounds are retold here after the supplement of paper PMC4862054.

Structures are written as SMILES.

Holding throughout (conditions): incubation time: 72 h
Assay [1] relates to MDA-MB-453. As to the kind of experiment: normalised viability (% of control), CellTiter-Blue; higher = more viable cells (about 100 = DMSO control). On the procedure:
(§1)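 DSRT, CellTiter-Blue viability, 72 h incubation. Signal is normalised to DMSO and benzethonium chloride controls. Value is the normalised response at dose 7.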

The test system of assay [2] is CAL-85-1. Described as above. The method, then: as §1
Assay [3] deals with CAL-148. Described as above. On the procedure: as §1
The subject of assay [4] is DU-4475. Described as above. On the procedure:
as §1

Assay [5] relates to CAL-51. Described as above. On the procedure:
as §1

Assay [6] concerns HDQ-P1. The description is as above. The method, then: as §1
The test system of assay [7] is BT-474. The assay is described as follows: drug sensitivity score (DSS), CellTiter-Blue viability (DSS (AUC-based score)); higher = stronger viability inhibition; extreme values may be limits of the assay. The method, then: (§2)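 DSRT with the CellTiter-Blue (resazurin reduction) viability readout, fluorescence 560/590 nm, 72 h incubation. Plates were normalised to DMSO and benzethonium chloride controls. DSS is computed from the area under the fitted dose-response curve (5 or 9 concentrations).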
(In general: Resazurin is reduced to fluorescent resorufin, in cell work by metabolically active cells.)

For assay [8], the system named is MDA-MB-453. The assay is described as above. On the procedure: as §2
In assay [9] the test system is CAL-85-1. The description is as above. The method, then:
as §2

For assay [10], the system named is MDA-MB-468. The assay is described as above. The method, then:
as §2

Assay [11] relates to MDA-MB-436. Described as above. On the procedure:
as §2

Assay [12] has as its system CAL-148. The description is as above. The method, then: as §2
Assay [13] relates to DU-4475. The assay is described as above. On the procedure: as §2
Assay [14] concerns CAL-51. The assay is described as above. On the procedure:
as §2

For assay [15], the system named is SK-BR-3. The assay is described as above. The method, then: as §2
In assay [16] the test system is HCC1599. The assay is described as above. The method, then:
as §2

Assay [17] deals with MFM-223. The assay is described as above. On the procedure: as §2
The subject of assay [18] is MDA-MB-231. The assay is described as above. The method, then:
as §2

The subject of assay [19] is CAL-120. The assay is described as above. The method, then:
as §2

In assay [20] the test system is HCC1143. The description is as above. On the procedure: as §2
Assay [21] relates to BT-549. Described as above. The method, then:
as §2

For assay [22], the system named is HCC1937. The description is as above. On the procedure: as §2
The subject of assay [23] is Hs578T. The assay is described as above. On the procedure: as §2

For `CN1CCC(COc2cnc(-c3cccc(Cn4nc(-c5cccc(C#N)c5)ccc4=O)c3)nc2)CC1` (1000 nM), the normalised viability in assay [1] came out at 90.8%; in assay [2] it was 98.6%; in [3], 90.4%; in [4], 97.2%; in [5], 99.2%; in [6], 95%.
Consider `CN(C)C/C=C/C(=O)Nc1cc2c(Nc3ccc(F)c(Cl)c3)ncnc2cc1O[C@H]1CCOC1` [Afatinib] (1000 nM), for which the normalised viability in assay [1] came to 27.5%; in assay [2], 48.6%; in assay [3], 73.7%; in assay [4], 87.7%; in assay [5], 99.7%; in [6], 49.8%.
Take `CN1CC[C@H](c2c(O)cc(O)c3c(=O)cc(-c4ccccc4Cl)oc23)[C@H](O)C1` [Alvocidib] (1000 nM): the normalised viability came out at 9.17% in assay [1]; 1.95% in assay [2]; 10.3% in [3]; 3.18% in assay [4]; 4.57% in [5]; 10.8% in [6].
With `Nc1nc(Cl)nc2c1ncn2[C@H]1C[C@H](O)[C@@H](CO)O1` [Cladribine] (100 nM), the normalised viability is 98.4% in assay [1]; 84.2% in assay [2]; 96.9% in assay [3]; 81% in [4]; 111% in assay [5]; 95.5% in [6].
`Nc1ccn([C@@H]2O[C@H](CO)[C@@H](O)[C@@H]2O)c(=O)n1` [Cytarabine] (1000 nM): the normalised viability in assay [1] was 62.4%; in assay [2] it was 88.5%; in assay [3], 44.6%; in assay [4] it was 39.7%; in assay [5], 29.8%; in assay [6], 82.2%.
For `Cc1c2oc3c(C)ccc(C(=O)N[C@@H]4C(=O)N[C@H](C(C)C)C(=O)N5CCC[C@H]5C(=O)N(C)CC(=O)N(C)[C@@H](C(C)C)C(=O)O[C@@H]4C)c3nc-2c(C(=O)N[C@@H]2C(=O)N[C@H](C(C)C)C(=O)N3CCC[C@H]3C(=O)N(C)CC(=O)N(C)[C@@H](C(C)C)C(=O)O[C@@H]2C)c(N)c1=O` [Dactinomycin] (100 nM), the normalised viability in assay [1] was 4.93%; in assay [2] it was 3.46%; in assay [3] it was 7.49%; in assay [4] it was 0.64%; in [5], 2.49%; in [6], 12.9%.
Take `COc1cccc2c1C(=O)c1c(O)c3c(c(O)c1C2=O)C[C@@](O)(C(=O)CO)C[C@@H]3O[C@H]1C[C@H](N)[C@H](O)[C@H](C)O1` [Doxorubicin] (100 nM): the normalised viability in [1] was determined as 98.8%; in [2], 77.5%; in assay [3], 39.1%; in [4], 59.1%; in [5] it was 66.1%; in [6], 70.9%.
For `Cc1ccc(F)c(NC(=O)Nc2ccc(-c3cccc4[nH]nc(N)c34)cc2)c1` [Linifanib], the drug sensitivity score in [7], in assay [8], in assay [9], in assay [10], in [11] and in [12] was 0 in each case. Also, the drug sensitivity score in assay [13], in [14], in assay [15], in [16], in assay [17] and in [18] was 0 in each case. Also, the drug sensitivity score in assay [19], in assay [20], in assay [21], in [22] and in assay [23] was 0 in each case.
Take `Cc1ccc(F)c(NC(=O)Nc2ccc(-c3cccc4[nH]nc(N)c34)cc2)c1` [Linifanib] (100 nM): the normalised viability stood at 100% in assay [1]; 87.4% in [2]; 103% in assay [3]; 103% in [4]; 108% in assay [5]; 113% in assay [6].
Take `S=c1[nH]cnc2nc[nH]c12` [Mercaptopurine] (1000 nM): the normalised viability in assay [1] was 110%; in assay [2], 78.4%; in [3], 100%; in [4], 90.6%; in [5] it was 101%; in assay [6] it was 90.3%.
In the case of `Clc1ccc(C(c2ccccc2Cl)C(Cl)Cl)cc1` (stereo not given) [Mitotane], the drug sensitivity score in assay [7], in assay [8], in [9], in [10], in [11] and in [12] was 0 throughout. For the same compound, the drug sensitivity score in assay [13], in assay [14], in assay [15], in [16], in assay [17] and in assay [18] was 0 each time. Also, the drug sensitivity score in assay [19], in assay [20], in assay [21], in assay [22] and in assay [23] was 0 throughout.
`Clc1ccc(C(c2ccccc2Cl)C(Cl)Cl)cc1` (stereo not given) [Mitotane] (1000 nM): the normalised viability in assay [1] came out at 97.5%; in [2], 83.2%; in assay [3] it was 108%; in assay [4], 87.9%; in assay [5], 105%; in assay [6], 104%.
On to `COc1cccc2cc(-c3nc([C@H]4CC[C@H](C(=O)O)CC4)n4ncnc(N)c34)[nH]c12` [OSI-027] (1000 nM), for which the normalised viability stood at 37.5% in assay [1]; 61% in assay [2]; 65.1% in assay [3]; 68.1% in assay [4]; 61.8% in assay [5]; 39.3% in [6].
